# Literature values, collected in paper PMC12308805, “Ultrahigh-Throughput Virtual Screening Strategies against PPI Targets: A Case Study of STAT Inhibitors” (Journal of Chemical Information and Modeling, 2025).
# Square brackets hold non-standard residues; d marks the D form. Peptide text beside a SMILES is read from it. * marks the point of attachment. aIle = CC[C@@H](C)[C@H](N)C(=O)O; AMC = Cc1cc(=O)oc2cc(N*)ccc12; Boc = CC(C)(C)OC(=O)*
# Test system: STAT3
# Settings: sheet 6QHD_actives_decoys, retrospective screening set for STAT3 SH2 domain (PDB 6QHD); decoys are presumed inactives, not tested; ref DUD-E; cited from earlier work
row,SMILES,Type
1,CCOC(=O)c1ccc(NC(=O)c2cc([N+](=O)[O-])ccc2NC(=O)CNCc2ccc3c(c2)OCO3)cc1 [Decoy729],Inactive (Decoy)
2,C[C@H](N[C@H](C)c1ccc(Cl)s1)c1ccc(Cl)c(Cl)c1Cl [Decoy730],Inactive (Decoy)
3,CCCOC(=O)c1ccc(OCC(=O)N/N=C(/S)NC(=O)c2ccccc2[N+](=O)[O-])cc1 [Decoy731],Inactive (Decoy)
4,C=C1NC(=O)[C@@H]([C@@H](C)O)NC(=O)[C@@H](C(C)C)NC(=O)[C@@H](C)[C@@H](O)[C@H](C)[C@@H](CCCCCCCCC)OC1=O [Decoy732],Inactive (Decoy)
5,CCOc1ccc(NC(=O)CCC(=O)NNC(=S)NC(=O)c2cc([N+](=O)[O-])cc([N+](=O)[O-])c2)cc1 [Decoy733],Inactive (Decoy)
6,O=C(NC(CO[C@H]1[C@H](O)[C@H](O)[C@H](O)O[C@@H]1CO)CO[C@H]1[C@H](O)[C@H](O)[C@@H](O)O[C@@H]1CO)c1ccc(C2(C(F)(F)F)N=N2)cc1 (stereo partly drawn) [Decoy734],Inactive (Decoy)
7,CCOC(=O)CNC(=O)[C@H](c1ccc(OC)cc1)N(C(=O)c1snc(C(N)=O)c1N)c1cccc(C)c1 [Decoy735],Inactive (Decoy)
8,COc1cccc(/C=N/NC(=O)[C@H](C)Sc2nnc(S[C@H](C)C(=O)N/N=C/c3cccc(OC)c3OC)s2)c1OC [Decoy736],Inactive (Decoy)
9,COc1cc(CNC(=O)CSc2n[nH]c(N/N=C/c3cc(OC)c(O)cc3[N+](=O)[O-])n2)cc(OC)c1 [Decoy737],Inactive (Decoy)
10,COc1ccc(OC[C@@H](O)Cn2c(C)c(C#N)c(=O)n(C[C@@H](O)COc3ccc(OC)cc3)c2=O)cc1 [Decoy738],Inactive (Decoy)
11,O=C(O)CN(CC(=O)O)Cc1cc2c(cc1O)Oc1cc(O)c(CN(CC(=O)O)CC(=O)O)cc1C21OC(=O)c2ccccc21 [Decoy739],Inactive (Decoy)
12,CCOC(=O)[C@@](NC(=O)c1cccc(Cl)c1)(Nc1ccc(S(=O)(=O)Nc2cc(C)nc(C)n2)cc1)C(F)(F)F [Decoy740],Inactive (Decoy)
13,COc1ccc([N+](=O)[O-])cc1N(C[C@H](O)CN(Cc1ccccc1)Cc1ccccc1)S(=O)(=O)c1ccccc1 [Decoy741],Inactive (Decoy)
14,CC(=O)O[C@H]1[C@@H](O)[C@H](CO)O[C@H](O[C@@H](C/N=C/c2c(O)cc(O)c3ccccc23)[C@@H](CO)O[C@H](O)C/N=C/c2c(O)cc(O)c3ccccc23)[C@@H]1O [Decoy742],Inactive (Decoy)
15,CC[C@@]1(c2ccccc2)NC(=O)N(CC(=O)Nc2ccc(S(=O)(=O)Nc3ncccn3)cc2)C1=O [Decoy743],Inactive (Decoy)
16,CCN(CC)S(=O)(=O)c1ccc(NC(=O)CCCCCCCC(=O)Nc2ccc(S(=O)(=O)N(CC)CC)cc2)cc1 [Decoy744],Inactive (Decoy)
17,CCOC(=O)C1=C(C)NC(=O)N[C@H]1c1ccc(OCC(=O)N/N=C/c2cc(C)n(-c3ccc(Cl)c(Cl)c3)c2C)c(OC)c1 [Decoy745],Inactive (Decoy)
18,Cc1cc(NS(=O)(=O)c2ccc(NC(=O)CCCC(=O)Nc3ccc(S(=O)(=O)Nc4cc(C)on4)cc3)cc2)no1 [Decoy746],Inactive (Decoy)
19,CCOC(=O)c1[nH]c(C)c(C(=O)OCC(=O)NCC(=O)Nc2ccc(F)c(F)c2F)c1C [Decoy747],Inactive (Decoy)
20,CCCCCCCCCCCCCCCCN(C)S(=O)(=O)c1ccc2sc(NNS(=O)(=O)c3ccc(S(N)(=O)=O)cc3)[n+](C)c2c1 [Decoy748],Inactive (Decoy)
21,CS(=O)(=O)SCCNC(=O)[C@H](N)CCCCNC(=O)CCCCCNC(=O)CCCC[C@@H]1SC[C@H]2NC(=O)N[C@H]12 [Decoy749],Inactive (Decoy)
22,COc1cc(Cc2ccc(NC(=O)CSc3nc(N)cc(=O)[nH]3)c(OC)c2)ccc1NC(=O)CSc1nc(N)cc(=O)[nH]1 [Decoy750],Inactive (Decoy)
23,CCOC(=O)c1c(NC(=O)CSc2n[nH]c(N/N=C/c3c[nH]c4ccccc34)n2)sc2c1CCC2 [Decoy751],Inactive (Decoy)
24,CC(=O)Nc1cccc(NC(=O)CSc2nnc(N/N=C/c3c(O)ccc4ccccc34)n2N)c1 [Decoy752],Inactive (Decoy)
25,CC[C@@H](C)[C@H](NC(=O)OC(C)(C)C)C(=O)N[C@@H](CCC(=O)O)C(=O)NCC(=O)N[C@@H](CCCNC(=N)N)C(=O)Nc1ccc2c(C)cc(=O)oc2c1 [Decoy753] (Boc-[aIle]EGR-{AMC}),Inactive (Decoy)
26,CCOC(=O)c1c(NC(=O)c2cc(OC)c(OC)c(OC)c2)sc(C(=O)Nc2ccc(OC)cc2OC)c1C [Decoy754],Inactive (Decoy)
27,CC(C)CN(C(=O)CN(C)C(=O)Cc1ccccc1Cl)c1c(N)n(CC(C)C)c(=O)[nH]c1=O [Decoy755],Inactive (Decoy)
28,CCOC(=O)c1[nH]c(C)c(C(=O)C2=C(O)C(=O)N(CCCn3ccnc3)[C@H]2c2cc(OC)c(OC)c(OC)c2)c1C [Decoy756],Inactive (Decoy)

row,SMILES,Type
1,CCCCN(C)S(=O)(=O)c1ccc(C(=O)Nc2ccc(S(=O)(=O)Nc3nc(C)cc(C)n3)cc2)cc1 [Decoy757],Inactive (Decoy)
2,CC/C=C\C/C=C\C/C=C\CCCCCCCC(=O)OC[C@@H](O)CO[C@H]1O[C@@H](CO[C@H]2O[C@@H](CO)[C@H](O)[C@@H](O)[C@@H]2O)[C@@H](O)[C@@H](O)[C@@H]1O [Decoy758],Inactive (Decoy)
3,CCCOc1ccc([C@@H]2C(C(=O)c3c(C)nc4ccccn34)=C(O)C(=O)N2CCN(CC)CC)cc1OCC [Decoy759],Inactive (Decoy)
4,CCCOc1ccc([C@H]2C(C(=O)c3c(C)nc4ccccn34)=C(O)C(=O)N2CCN(CC)CC)cc1OCC [Decoy760],Inactive (Decoy)
5,CCOC(=O)c1c(C)[nH]c(C(=O)OCC(=O)NCC(=O)Nc2ccc(F)c(F)c2F)c1C [Decoy761],Inactive (Decoy)
6,CCCCOC(=O)C1=C(C)Nc2nc(SCc3ccccc3Cl)nn2[C@@H]1c1ccccc1C(=O)O [Decoy762],Inactive (Decoy)
7,Cc1nn(-c2cc(Cl)c(S(=O)(=O)O)cc2Cl)c(O)c1/N=N/c1cccc(S(=O)(=O)O)c1 [Decoy763],Inactive (Decoy)
8,CCOC(=O)[C@@H]1[C@@H](C(=O)OCC)[C@H]2/C(=N\NS(=O)(=O)c3ccc(C)cc3)[C@H]3[C@@H](C(=O)OCC)[C@@H](C(=O)OCC)[C@@H]3/C(=N\NS(=O)(=O)c3ccc(C)cc3)[C@@H]12 [Decoy764],Inactive (Decoy)
9,COc1ccc([C@H](O[C@@H]2O[C@H](CO)[C@@H](O)[C@H](O)[C@H]2O)[C@@H](CO)Oc2ccc(/C=C/CO)cc2OC)cc1O [Decoy765],Inactive (Decoy)
10,CC[C@@]1(c2ccccc2)NC(=O)N(CC(=O)NNC(=O)CCN2CCN(c3ccccc3)CC2)C1=O [Decoy766],Inactive (Decoy)
11,CC1=C/C(=C(\c2cc(C)c(O)c(CN(C)CC(=O)O)c2)c2ccccc2S(=O)(=O)O)C=C(CN(C)CC(=O)O)C1=O [Decoy767],Inactive (Decoy)
12,COc1ccccc1NCc1nnc(SCC(=O)Nc2ccc3c(c2)C(O)=NC3=O)n1-c1ccccc1 [Decoy768],Inactive (Decoy)
13,CCN(CC)c1ccc(NC(=S)NC(=O)c2ccco2)cc1S(=O)(=O)Nc1ccc(OC)cc1 [Decoy769],Inactive (Decoy)
14,CCc1ccc2[nH]c(=O)c(CN(CCc3ccc(OC)c(OC)c3)Cc3nnnn3Cc3ccccc3)cc2c1 [Decoy770],Inactive (Decoy)
15,O=C(CCCCC(=O)Nc1ccc(S(=O)(=O)N2CCCCC2)cc1)Nc1ccc(S(=O)(=O)N2CCCCC2)cc1 [Decoy771],Inactive (Decoy)
16,CC1=CC(=O)CC(C)(C)[C@H]1/C=C/[C@@H](C)O[C@@H]1O[C@H](CO)[C@@H](O)[C@H](O)[C@H]1O[C@@H]1OC[C@](O)(CO)[C@H]1O [Decoy772],Inactive (Decoy)
17,COc1c([C@@H]2OC[C@@H](OC(C)=O)[C@@H](OC(C)=O)[C@H]2OC(C)=O)c(O)cc2oc(-c3ccc(O[C@H]4O[C@@H](CO)[C@@H](O)[C@@H](O)[C@H]4O)cc3)cc(=O)c12 [Decoy773],Inactive (Decoy)
18,COc1c([C@@H]2OC[C@H](OC(C)=O)[C@@H](OC(C)=O)[C@H]2OC(C)=O)c(O)cc2oc(-c3ccc(O[C@H]4O[C@@H](CO)[C@@H](O)[C@@H](O)[C@H]4O)cc3)cc(=O)c12 [Decoy774],Inactive (Decoy)
19,CC[C@H]1OC(=O)[C@@H](C)[C@@H](O[C@@H]2C[C@@](C)(OC)[C@H](O)[C@H](C)O2)[C@@H](C)[C@@H](O[C@H]2O[C@@H](C)C[C@@H](N(C)C)[C@H]2O)[C@](C)(OC)C[C@@H](C)C(=O)[C@@H](C)[C@@H](O)[C@]1(C)O [Decoy775],Inactive (Decoy)
20,COc1ccc2cc([C@H](c3nnnn3C(C)(C)C)N(CCc3ccc(OC)c(OC)c3)Cc3ccccc3)c(=O)[nH]c2c1 [Decoy776],Inactive (Decoy)
21,Cc1cc(NC(=O)CSc2nncn2C)ccc1-c1ccc(NC(=O)CSc2nncn2C)cc1C [Decoy777],Inactive (Decoy)
22,CCOc1ccc(-n2c(SCC(=O)N/N=C/c3ccc(OC)c(OC)c3OC)nnc2-c2ccccc2)cc1 [Decoy778],Inactive (Decoy)
23,C[C@@]1(c2cc3ccccc3o2)NC(=O)N(CC(=O)Nc2cccc(S(=O)(=O)N3CCCC3)c2)C1=O [Decoy779],Inactive (Decoy)
24,C/C(=C(/CCO)SS/C(CCO)=C(\C)N(C=O)Cc1cnc(C)nc1N)N(C=O)Cc1cnc(C)nc1N [Decoy780],Inactive (Decoy)
25,C/C(=C(\CCO)SS/C(CCO)=C(\C)N(C=O)Cc1cnc(C)nc1N)N(C=O)Cc1cnc(C)nc1N [Decoy781],Inactive (Decoy)
26,C[C@H](O)C[C@H](O)[C@@H](SC[C@@H](O)C(=O)O)[C@@H](O)/C=C/Cc1cc2c(Cl)c(O)cc(O)c2c(=O)o1 [Decoy782],Inactive (Decoy)
27,CC(=O)c1cccc(S(=O)(=O)NCCC(=O)Nc2ccc(S(=O)(=O)/N=C3\CCCCCN3)cc2)c1 [Decoy783],Inactive (Decoy)

# Same assay, conditions: sheet 6QHD_actives_decoys; retrospective screening set for STAT3 SH2 domain (PDB 6QHD); decoys generated with DUD-E and presumed inactive, not tested; ref DUD-E; cited from earlier work
row,SMILES,Type
1,CC(=O)Nc1ccc(S(=O)(=O)N(CCN2CCOCC2)CC(=O)N(Cc2ccc3c(c2)OCO3)Cc2ccc(C)o2)cc1 [Decoy727],Inactive (Decoy)
2,COc1ccc(CCN2C(=O)[C@H]3[C@@H](C2=O)[C@]2(N[C@@H]3Cc3ccc(O)c(O)c3)C(=O)Nc3ccc(Cl)cc32)cc1OC [Decoy728],Inactive (Decoy)
